Data on 21 compounds can be found in US11136321B2, “Tricyclic compounds” (ALIGOS THERAPEUTICS, INC., priority 2019, dated 2021).

Usually EC50 stands for the concentration at which the effect is half-maximal. A lower EC50 goes with higher potency in that assay.

SMILES strings stand for the structures. A value given as a limit tells only on which side of the number the result lay.

The test system of the first assay is HBV. Put plainly: HBV-DNA antiviral assay using HepG2.117 cells. Type of assay: cell-based, genotype D HBV. As to conditions: Hepatitis B virus, 72 h, intracellular HBV DNA by qPCR, 3 days incubation. As for the experimental part:
The following assay procedure describes the HBV antiviral assay, using HepG2.117 cells, which carry a stably integrated genotype D HBV genome under the control of a Tet-off promoter, and intracellular HBV DNA quantification as endpoint. Cell viability is assessed in parallel by measuring the intracellular ATP content using ATPlite (Perkin Elmer).
On day 0, HepG2.117 cells (which are maintained in routine cell culture with doxycycline present in the medium at a final concentration of 1 μg/mL) were seeded in 96-well plates (white with clear bottom) at a density of 2.0×10^4 cells/well (0.1 mL/well) in medium without doxycycline to induce pgRNA transcription and subsequent formation of HBV particles. The cells were incubated at 37° C. and 5% CO2.
On day 1, medium was removed from each well, the test articles were diluted in culture medium without doxcycyline and 100 μL was added to cell culture wells (9 concentrations, 4-fold dilution). For each plate, 6 untreated (merely DMSO) wells were included. The final concentration of DMSO in the culture medium was 2%. Each plate was prepared in duplicate (one for HBV DNA extraction, one for ATPlite measurement). The cells were incubated at 37° C. and 5% CO2 for 3 days.
On day 4, cell viability was assessed using ATPlite and cell lysates were prepared for HBV DNA extraction and subsequent quantification by qPCR.
Medium was removed from each well and 100 μL of 0.33% NP-40 in H2O was added to each well. Plates were sealed, incubated at 4° C. for 5 mins, vortexed extensively and centrifuged briefly. Next, 35 μL of lysate was added to 65 μL QuickExtract DNA Extraction Solution (Epicentre) in a PCR plate for each well. PCR plate was incubated at 65° C. for 6 mins, 98° C. for 2 mins and finally cooled to 4° C. HBV DNA was then quantified by qPCR with HBV-specific primers and probes as specified in Table 1 using the Bio-Rad SSOAdvanced Universal Probes Supermix on a CFX96 machine (Bio-Rad). The PCR cycle program consisted of 95° C. for 3 mins, followed by 40 cycles at 95° C. for 10 sec and 60° C. for 30 sec.
A DNA standard was prepared by dilution of an IDT gBlock corresponding to the amplicon with concentrations ranging from 10^2 to 10^8 copies/input (i.e. per 4 μL) and used to generate a standard curve by plotting Cq values vs. HBV DNA standard concentration. The quantity of HBV DNA in each sample was determined by interpolating from the standard curve.
Cell viability was calculated as follows: % Cell viability=(luminescence value of test sample)/(average luminescence value of 2% DMSO control)×100%. HBV DNA inhibition was calculated as follows: 100−(HBV DNA copy number of test sample)/(average HBV DNA copy number of 2% DMSO control)×100%. No normalization to entecavir was required due to the excellent dynamic window of this assay. The CC50, EC50 and EC90 values were determined by dose-response curves fitted by GraphPad Prism using “log (agonist) vs. response—Variable slope”.
`CNC(=O)c1ccc(-n2c(=O)c3c(n4ncc(N[C@H](C)c5ccccc5)c24)CN(C(=O)c2ccc(Br)c(Cl)c2)CC3)cc1` (stereo in doubt) [Compound 79, 4-[12-(4-bromo-3-chloro-benzoyl)-8-oxo-5-[[rac-(1R)-1-phenylethyl]amino]-2,3,7,12-tetrazatricyclo [7.4.0.0 2,6]trideca-1(9),3,5-trien-7-yl]-N-methyl-benzamide] came in with a half-maximal effective concentration (EC50) of 100 to 500 nM. `N#Cc1cc(C(=O)N2CCc3c(n4ncc(Cc5ccccc5)c4n(-c4ccc(-n5cccn5)cc4)c3=O)C2)ccc1Br` [Compound 78, 5-[5-benzyl-8-oxo-7-(4-pyrazol-1-ylphenyl)-2,3,7,12-tetrazatricyclo [7.4.0.0 2,6]trideca-1(9),3,5-triene-12-carbonyl]-2-bromo-benzonitrile] showed an EC50 greater than 5000 nM.

`O=C(c1ccc(Cl)c(Cl)c1)N1CCc2c(n3ncc(Cc4ccccc4)c3n(-c3ccccc3)c2=O)C1` [Compound 27, 5-benzyl-12-(3,4-dichlorobenzoyl)-7-phenyl-2,3,7,12-tetrazatricyclo [7.4.0.0 2,6] trideca-1(9),3,5-trien-8-one] displayed an EC50 of no more than 100 nM.

Regarding `CNC(=O)c1ccc(-n2c(=O)c3c(n4ncc(Cc5ccccc5)c24)CN(C(=O)c2ccc(Br)c(C#N)c2)CC3)cc1` [Compound 37, 4-[5-benzyl-12-(4-bromo-3-cyano-benzoyl)-8-oxo-2,3,7,12-tetrazatricyclo [7.4.0.0 2,6]trideca-1(9),3,5-trien-7-yl]-N-methyl-benzamide], the concentration for a half-maximal effect (EC50) was no more than 100 nM. Still for that read-out and setting: to `CNC(=O)c1ccc(-n2c(=O)c3c(n4ncc(NCc5ccccc5)c24)CN(C(=O)c2ccc(Cl)c(Cl)c2)CC3)cc1` [Compound 42, 4-[5-(benzylamino)-12-(3,4-dichlorobenzoyl)-8-oxo-2,3,7,12-tetrazatricyclo [7.4.0.0 2,6]trideca-1(9),3,5-trien-7-yl]-N-methyl-benzamide] belongs no more than 100 nM. On the same count and under the same terms, to `CCNC(=O)c1ccc(-n2c(=O)c3c(n4ncc(Cc5ccccc5)c24)CN(C(=O)c2ccc(Br)c(Cl)c2)CC3)cc1` [Compound 61, 4-[5-benzyl-12-(4-bromo-3-chloro-benzoyl)-8-oxo-2,3,7,12-tetrazatricyclo [7.4.0.0 2,6]trideca-1(9),3,5-trien-7-yl]-N-ethyl-benzamide] belongs 500 to 5000 nM; to `CC(C)CNc1cnn2c3c(c(=O)n(-c4ccccc4)c12)CCN(C(=O)c1ccc(Cl)c(Cl)c1)C3` [Compound 15, 12-(3,4-dichlorobenzoyl)-5-(isobutylamino)-7-phenyl-2,3,7,12-tetrazatricyclo [7.4.0.0^2,6] trideca-1(9),3,5-trien-8-one], greater than 5000 nM; to `COc1ccc(-n2c(=O)c3c(n4ncc(NS(=O)(=O)c5ccccc5)c24)CN(C(=O)c2ccc(Br)c(Cl)c2)CC3)cc1` [Compound 31, N-[12-(4-bromo-3-chloro-benzoyl)-7-(4-methoxyphenyl)-8-oxo-2,3,7,12-tetrazatricyclo [7.4.0.0 2,6]trideca-1(9),3,5-trien-5-yl] benzenesulfonamide], no more than 100 nM. `O=C(c1ccc(Br)c(Cl)c1)N1CCc2c(n3ncc(Cc4ccccc4)c3n(-c3ccccc3)c2=O)C1` [Compound 12, 5-benzyl-12-(4-bromo-3-chlorobenzoyl)-7-phenyl-2,3,7,12-tetraazatricyclo[7.4.0.0^[2,6]]trideca-1(9),3,5-trien-8-one] showed an EC50 of 100 to 500 nM.

`COc1ccc(-n2c(=O)c3c(n4ncc(NC(=O)c5ccccc5)c24)CN(C(=O)c2ccc(Br)c(Cl)c2)CC3)cc1` [Compound 30, N-[12-(4-bromo-3-chloro-benzoyl)-7-(4-methoxyphenyl)-8-oxo-2,3,7,12-tetrazatricyclo [7.4.0.0 2,6]trideca-1(9),3,5-trien-5-yl] benzamide] displayed an EC50 of 100 to 500 nM. On to `CNC(=O)c1ccc(-n2c(=O)c3c(n4ncc(N[C@@H](C)c5ccccc5)c24)CN(C(=O)c2ccc(Br)c(Cl)c2)CC3)cc1` (stereo in doubt) [Compound 74, 4-[12-(4-bromo-3-chloro-benzoyl)-8-oxo-5-[[rac-(1S)-1-phenylethyl]amino]-2,3,7,12-tetrazatricyclo [7.4.0.0 2,6]trideca-1(9),3,5-trien-7-yl]-N-methyl-benzamide], for which the EC50 is no more than 100 nM.

For the compound `COc1ccc(-n2c(=O)c3c(n4ncc(NS(C)(=O)=O)c24)CN(C(=O)c2ccc(Cl)c(Cl)c2)CC3)cc1` [Compound 26, N-[12-(3,4-dichlorobenzoyl)-7-(4-methoxyphenyl)-8-oxo-2,3,7,12-tetrazatricyclo [7.4.0.0 2,6]trideca-1(9),3,5-trien-5-yl] methanesulfonamide], the 50% effective concentration (EC50) was in the range of 500 to 5000 nM. Turning to `CNC(=O)c1ccc(-n2c(=O)c3c(n4ncc(NCc5ccc(OCC(N)=O)cc5)c24)CN(C(=O)c2ccc(Br)c(Cl)c2)CC3)cc1` [Compound 52, 4-[5-[[4-(2-amino-2-oxo-ethoxy)phenyl]methylamino]-12-(4-bromo-3-chloro-benzoyl)-8-oxo-2,3,7,12-tetrazatricyclo [7.4.0.0 2,6]trideca-1(9),3,5-trien-7-yl]-N-methyl-benzamide], the 50% effective concentration (EC50) was in the range of 100 to 500 nM. Same read-out and setting: to `N#Cc1cc(C(=O)N2CCc3c(n4ncc(Cc5ccccc5)c4n(-c4ccc(C(N)=O)cc4)c3=O)C2)ccc1Br` [Compound 82, 4-[5-benzyl-12-(4-bromo-3-cyano-benzoyl)-8-oxo-2,3,7,12-tetrazatricyclo [7.4.0.0 2,6]trideca-1(9),3,5-trien-7-yl] benzamide] belongs greater than 5000 nM.

Turning to `O=C(Nc1ccc(F)c(Cl)c1)N1CCc2c(n3nccc3n(Cc3ccccc3)c2=O)C1` [Compound 2, 4-benzyl-N-(3-chloro-4-fluorophenyl)-5-oxo-5,6,7,9-tetrahydropyrazolo[1,5-a]pyrido[4,3-e]pyrimidine-8(4H)-carboxamide], the EC50 fell in the range of 500 to 5000 nM. Still for that read-out and setting: to `Cn1c(=O)c2c(n3nccc13)CN(C(=O)Nc1ccc(F)c(Cl)c1)CC2` [Compound 1, N-(3-chloro-4-fluorophenyl)-4-methyl-5-oxo-5,6,7,9-tetrahydropyrazolo[1,5-a]pyrido[4,3-e]pyrimidine-8(4H)-carboxamide] belongs 500 to 5000 nM; to `CNC(=O)c1ccc(-n2c(=O)c3c(n4ncc([C@H](C)c5ccccc5)c24)CN(C(=O)c2ccc(Br)c(C#N)c2)CC3)cc1` (stereo in doubt) [Compound 57, 4-[12-(4-bromo-3-cyano-benzoyl)-8-oxo-5-[rac-(1R)-1-phenylethyl]-2,3,7,12-tetrazatricyclo [7.4.0.0 2,6]trideca-1(9),3,5-trien-7-yl]-N-methyl-benzamide], no more than 100 nM.

Staying with this assay, now noted: intracellular HBV DNA by qPCR, 3 days incubation.
With `O=C(c1ccc(Br)c(Cl)c1)N1CCc2c(n3nccc3n(Cc3ccccc3)c2=O)C1` [Compound 6, 7-benzyl-12-(4-bromo-3-chlorobenzoyl)-2,3,7,12-tetraazatricyclo[7.4.0.0^[2,6]]trideca-1(9),3,5-trien-8-one], the EC50 lay in the range of 500 to 5000 nM. `CNC(=O)c1ccc(-n2c(=O)c3c(n4ncc(Cc5ccccc5)c24)CN(C(=O)c2ccc(Br)c(Cl)c2)CC3)cc1` [Compound 29, 4-[5-benzyl-12-(4-bromo-3-chlorobenzoyl)-8-oxo-2,3,7,12-tetraazatricyclo[7.4.0.0^[2,6]]trideca-1(9),3,5-trien-7-yl]-N-methylbenzamide] showed a concentration for a half-maximal effect (EC50) of no more than 100 nM.

As for `O=C(c1ccc(Cl)c(Cl)c1)N1CCc2c(n3ncc(NCc4ccccc4)c3n(-c3ccccc3)c2=O)C1` [Compound 18, 5-(benzylamino)-12-(3,4-dichlorobenzoyl)-7-phenyl-2,3,7,12-tetraazatricyclo[7.4.0.0^[2,6]]trideca-1(9),3,5-trien-8-one], the EC50 was 500 to 5000 nM. On the same count and under the same terms, to `COc1ccc(-n2c(=O)c3c(n4ncc(NC(C)=O)c24)CN(C(=O)c2ccc(Cl)c(Cl)c2)CC3)cc1` [Compound 21, N-[12-(3,4-dichlorobenzoyl)-7-(4-methoxyphenyl)-8-oxo-2,3,7,12-tetrazatricyclo [7.4.0.0^2,6]trideca-1(9),3,5-trien-5-yl]acetamide] belongs greater than 5000 nM.
